These results are taken from ChEMBL document CHEMBL5506018, “Discovery and Mechanistic Studies of Dual-Target Hits for Carbonic Anhydrase IX and VEGFR-2 as Potential Agents for Solid Tumors: X-ray, In Vitro, In Vivo, and In Silico Investigations of Coumarin-Based Thiazoles” (J Med Chem, 2024).

Each structure is given as a SMILES string. pIC50, pKi: −log10 of the molar value.

One series has as its system PANC-1. The series can be described thus: Cytotoxicity against human PANC-1 cells under hypoxia condition by MTT assay. It is filed as functional, cell-based.
For series [1], the system named is Ehrlich. The conditions noted are these: dose 5 mg/kg; route ip; time 14 day.
Description: Antitumor activity against mouse EAC cells implanted in Swiss albino mouse assessed as T/C ratio at 5 mg/kg, ip measured on day 5, 10 and 14
The test system of series [2] is Ehrlich. Briefly: animal or person. The conditions noted are these: Mus musculus, 336 h, read-out: GI.
Series [3] in a line: Cytotoxicity against African green monkey Vero cells under hypoxic condition by MTT assay. The conditions noted are these: African green monkey (Chlorocebus sabaeus).
Series [4] addresses T1, Carbonic anhydrase 1 (Homo sapiens, UniProt P00915).
Description: Inhibition of human CA1 preincubated for 6 hrs by phenol red staining based stopped flow CO2 hydrase assay
The target of series [5] is T1, Carbonic anhydrase 1. Briefly: Inhibition of human CA1 by stopped flow CO2 hydrase assay.
Series [6] concerns the target T2, Vascular endothelial growth factor receptor 2 (Homo sapiens, UniProt P35968). The series can be described thus: Inhibition of hypoxia induced VEGFR-2 (unknown origin).
Series [7] concerns the target T2, Vascular endothelial growth factor receptor 2. The series can be described thus: Inhibition of VEGFR-2 (unknown origin).

T2 sequence (P35968 whole entry): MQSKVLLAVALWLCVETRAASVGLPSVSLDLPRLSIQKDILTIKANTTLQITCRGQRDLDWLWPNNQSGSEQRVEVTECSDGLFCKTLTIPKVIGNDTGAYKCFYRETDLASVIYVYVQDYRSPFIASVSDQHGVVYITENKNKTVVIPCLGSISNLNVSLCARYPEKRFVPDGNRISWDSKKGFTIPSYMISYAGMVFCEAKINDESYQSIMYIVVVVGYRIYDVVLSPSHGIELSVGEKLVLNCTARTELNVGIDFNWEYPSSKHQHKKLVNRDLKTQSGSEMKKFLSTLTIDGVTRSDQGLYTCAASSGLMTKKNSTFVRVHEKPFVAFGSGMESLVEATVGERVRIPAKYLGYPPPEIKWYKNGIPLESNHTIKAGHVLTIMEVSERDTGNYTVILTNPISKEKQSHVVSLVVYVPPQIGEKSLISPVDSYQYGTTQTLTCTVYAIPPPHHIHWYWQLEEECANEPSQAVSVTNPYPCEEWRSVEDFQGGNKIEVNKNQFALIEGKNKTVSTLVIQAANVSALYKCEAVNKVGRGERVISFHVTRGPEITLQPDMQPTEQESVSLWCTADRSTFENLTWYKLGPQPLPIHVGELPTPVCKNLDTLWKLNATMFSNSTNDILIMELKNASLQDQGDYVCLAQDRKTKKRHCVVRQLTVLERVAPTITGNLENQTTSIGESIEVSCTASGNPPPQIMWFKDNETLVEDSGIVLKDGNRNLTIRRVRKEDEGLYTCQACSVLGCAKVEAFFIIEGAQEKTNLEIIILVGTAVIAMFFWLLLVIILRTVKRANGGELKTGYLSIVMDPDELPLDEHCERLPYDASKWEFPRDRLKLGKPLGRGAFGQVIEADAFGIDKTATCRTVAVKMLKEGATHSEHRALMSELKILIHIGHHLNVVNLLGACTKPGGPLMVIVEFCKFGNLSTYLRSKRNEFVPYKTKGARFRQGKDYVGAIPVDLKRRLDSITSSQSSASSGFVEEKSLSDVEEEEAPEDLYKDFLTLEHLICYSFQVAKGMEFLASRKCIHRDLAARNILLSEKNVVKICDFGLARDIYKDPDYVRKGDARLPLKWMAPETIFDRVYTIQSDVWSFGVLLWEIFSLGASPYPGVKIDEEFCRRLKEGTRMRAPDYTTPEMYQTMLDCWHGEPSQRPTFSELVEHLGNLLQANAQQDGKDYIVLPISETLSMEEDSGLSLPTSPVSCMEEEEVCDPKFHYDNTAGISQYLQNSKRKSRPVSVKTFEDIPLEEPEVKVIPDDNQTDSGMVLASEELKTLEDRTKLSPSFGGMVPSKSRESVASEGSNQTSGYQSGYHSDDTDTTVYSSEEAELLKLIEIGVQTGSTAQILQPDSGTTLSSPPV
T1 sequence (P00915 whole entry): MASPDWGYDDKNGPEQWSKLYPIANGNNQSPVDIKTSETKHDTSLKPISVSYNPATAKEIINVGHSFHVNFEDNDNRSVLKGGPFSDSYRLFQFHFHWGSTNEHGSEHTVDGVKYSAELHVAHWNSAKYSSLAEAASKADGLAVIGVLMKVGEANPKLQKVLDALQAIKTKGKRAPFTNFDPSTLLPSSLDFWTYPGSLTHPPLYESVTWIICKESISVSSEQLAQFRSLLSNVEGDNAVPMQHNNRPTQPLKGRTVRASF

Regarding `COc1cccc2c1C(=O)c1c(O)c3c(c(O)c1C2=O)C[C@@](O)(C(=O)CO)C[C@@H]3O[C@H]1C[C@H](N)[C@H](O)[C@H](C)O1` [DOXORUBICIN], the pIC50 is 5.16 with PANC-1 and 5.06 in series [3]. In addition, in the series with Ehrlich [1], the T/C came out at 40.89. The inhibition in vivo at 5 mg/kg in the series with Ehrlich [2] is 67%. On Carbonic anhydrase 1 [4], `CCOc1cccc2cc(/C(C)=N/Nc3nc(-c4ccc(Cl)cc4)cs3)c(=O)oc12` had a pKi of less than 4.00. In turn, `Cc1nc(-c2cc3ccccc3oc2=O)ccc1C(=O)/C=C/c1cccs1` gave a pKi on Carbonic anhydrase 1 [5] of 5.96.

For the compound `CCOc1cccc2cc(/C(C)=N/Nc3nc(-c4cc5cccc(OCC)c5oc4=O)cs3)c(=O)oc12`, on Carbonic anhydrase 1 [4], the pKi is less than 4.00.

As for `O=C(CN1C(=O)S/C(=C\c2cccs2)C1=O)c1cc2ccccc2oc1=O`, the pKi on Carbonic anhydrase 1 [4] was less than 4.00. Compound `CCOc1cccc2cc(/C(C)=N/Nc3nc(-c4ccc(F)cc4)cs3)c(=O)oc12` had a pKi at Carbonic anhydrase 1 [4] of less than 4.00. Moreover, the pIC50 in series [6] was 7.49.

Consider `CCOc1cccc2cc(/C(C)=N/Nc3nc(-c4ccc([N+](=O)[O-])cc4)cs3)c(=O)oc12`, for which the pKi on Carbonic anhydrase 1 [4] is less than 4.00.

Regarding `CCOc1cccc2cc(/C(C)=N/Nc3nc(-c4ccc(C)cc4)cs3)c(=O)oc12`, on Carbonic anhydrase 1 [4], the pKi is less than 4.00. Take `CCOc1cccc2cc(/C(C)=N/Nc3nc(-c4ccc(Br)cc4)cs3)c(=O)oc12`: at Carbonic anhydrase 1 [4], the pKi was less than 4.00.

`C/C(=N\NC(=S)Nc1ccc(Br)cc1)c1cc2ccccc2oc1=O` showed a pIC50 in series [7] of 7.09. For `CCOc1cccc2cc(/C(C)=N/Nc3nc(-c4ccc(OC)cc4)cs3)c(=O)oc12`, the pKi at Carbonic anhydrase 1 [4] is less than 4.00. Moreover, in series [6], the negative logarithm of the IC50 (pIC50) was 7.46.

`CCOc1cccc2cc(/C(C)=N/Nc3nc(-c4ccccc4)cs3)c(=O)oc12`: the negative-log Ki (pKi) at Carbonic anhydrase 1 [4] is less than 4.00. This compound also gave a pIC50 in series [6] of 7.16. On to `CCOc1cccc2cc(/C(C)=N/Nc3nc(-c4cc5ccc(OC)cc5oc4=O)cs3)c(=O)oc12`, for which, on Carbonic anhydrase 1 [4], the pKi was less than 4.00. On the same count and under the same terms, then `CCOc1cccc2cc(/C(C)=N/Nc3nc(-c4cc5cc(Br)ccc5oc4=O)cs3)c(=O)oc12`, with less than 4.00.
